Like-named read-outs stand apart in the source and are kept apart here.
What was measured:
[1] = test system: Serratia marcescens expressing IMP-1 (CL5741); assay: Antibiotic potentiation activity: synergistic concentration (MITC95) with imipenem, growth by OD600; format: cell-based
Procedure, shortened: (§1)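 Strains grown overnight at 35° C, resuspended in saline, diluted 1:100 into 1.1×CAMHB; imipenem at 1 μg/ml or 4 μg/ml with test compound 200 μM to 0.195 μM. Incubated 22 hours to 24 hours at 35° C, OD600 read; MITC95 is lowest compound concentration inhibiting 95% of growth.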

[2] = test system: Escherichia coli expressing NDM-1 (CLB30016); assay: as above; format: cell-based; settings: 95% inhibition of bacterial growth, strain CLB30016
Procedure, shortened: as §1

[3] = test system: Klebsiella pneumoniae expressing VIM-1 (IHMA599644); assay: as above; format: cell-based
Procedure, shortened: as §1

[4] = test system: Escherichia coli expressing NDM-1 (CLB30005); assay: as above; format: cell-based
Procedure, shortened: as §1

NDM-1 = NDM-1 (Klebsiella pneumoniae, UniProt C7C422); assay: Enzyme activity: determination of IC50, fluorescence assay with CCF2-FA substrate; format: biochemical; settings: CCF2-FA 1.25 μM, 2 hours at 25° C., read-out: NDM1 IC50
Sequence of NDM-1 (C7C422 29-270, looked up, species assumed): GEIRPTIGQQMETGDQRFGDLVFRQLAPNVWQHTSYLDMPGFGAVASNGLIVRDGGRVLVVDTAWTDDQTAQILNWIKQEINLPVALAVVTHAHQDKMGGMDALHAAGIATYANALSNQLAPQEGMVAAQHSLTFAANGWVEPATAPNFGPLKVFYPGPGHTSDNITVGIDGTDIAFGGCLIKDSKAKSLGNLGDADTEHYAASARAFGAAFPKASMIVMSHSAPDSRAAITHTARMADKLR
Procedure, shortened: (§2)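 Enzyme (1 pM NDM-1, 2 pM IMP-1, 30 pM VIM-1) incubated with inhibitor (20 to 0.00063 μM) and 1.25 μM CCF2-FA in 100 mM KH2PO4 pH 7, 0.005% Tween-20, 10 μM ZnSO4, 2 h at 25 °C. Fluorescence read at 460 nm (ex 405 nm); IC50 by 4-parameter fit.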

VIM-1 = VIM-1 (Pseudomonas aeruginosa, UniProt A0A0F7KYQ8); assay: as above; format: biochemical; settings: CCF2-FA 1.25 μM, 2 hours at 25° C., read-out: VIM1 IC50
Procedure, shortened: as §2

IMP-1 = IMP-1 (Serratia marcescens, UniProt P52699); assay: as above; format: biochemical; settings: CCF2-FA 1.25 μM, 2 hours at 25° C., read-out: IMP1 IC50
Sequence of IMP-1 (P52699 19-246, looked up, species assumed): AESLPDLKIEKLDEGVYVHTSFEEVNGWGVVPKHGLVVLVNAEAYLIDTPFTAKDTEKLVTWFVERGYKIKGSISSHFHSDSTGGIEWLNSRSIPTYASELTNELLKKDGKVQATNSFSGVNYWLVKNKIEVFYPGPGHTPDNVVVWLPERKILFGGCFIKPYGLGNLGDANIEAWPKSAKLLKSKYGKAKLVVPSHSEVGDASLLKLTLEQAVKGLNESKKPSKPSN
Procedure, shortened: as §2

[5] = 95% inhibition of bacterial growth, strain CL5741
[6] = 95% inhibition of bacterial growth, strain IHMA599644
[7] = 95% inhibition of bacterial growth, strain CLB30005
[8] = S. marcescens CL5741 (IMP-1), 95% inhibition of growth
[9] = K. pneumoniae IHMA599644 (VIM-1), 95% inhibition of growth
[10] = E. coli CLB30005 (NDM-1), 95% inhibition of growth

Compound: CCC[C@H](C(=O)O)[C@H](Cc1ccc(-c2ccc(N3CCNCC3)nc2)cc1)c1nn[nH]n1 [Example 199, (2S)-2-[(1S)-2-[4-(6-piperazin-1-ylpyridin-3-yl)phenyl]-1-(2H-tetrazol-5-yl)ethyl]pentanoic acid]
- IMP1 SM5741 MITC95 [1, 5]: 17 µM
- NDM1 EC30016 MITC95 [2]: 9.4 µM
- VIM1 KP599644 MITC95 [3, 6]: 31 µM
- NDM1 EC30005 MITC95 [4, 7]: 4.7 µM
- IC50 (NDM-1; enzyme 1 pM): 48 nM
- IC50 (VIM-1; enzyme 30 pM): 7.4 nM
- IC50 (IMP-1; enzyme 2 pM): 110 nM

Compound: CCC[C@H](C(=O)O)[C@H](Cc1ccc(-c2ccc(CN)cc2)cc1)c1nn[nH]n1 [Example 209, (2S)-2-[(1S)-2-[4′-(aminomethyl)biphenyl-4-yl]-1-(2H-tetrazol-5-yl)ethyl]pentanoic acid]
- IMP1 SM5741 MITC95 [1, 5]: 4.3 µM
- NDM1 EC30016 MITC95 [2]: 6.2 µM
- VIM1 KP599644 MITC95 [3, 6]: 12.5 µM
- NDM1 EC30005 MITC95 [4, 7]: 2.3 µM
- IC50 (NDM-1; enzyme 1 pM): 84 nM
- IC50 (VIM-1; enzyme 30 pM): 14 nM
- IC50 (IMP-1; enzyme 2 pM): 110 nM

Compound: CCC[C@H](C(=O)O)[C@H](Cc1ccc(Br)nc1)c1nnn[nH]1 [Example 143]
- IMP1 SM5741 MITC95 [1, 5]: >200 µM
- VIM1 KP599644 MITC95 [3, 6]: 100 µM
- NDM1 EC30005 MITC95 [4, 7]: 12.5 µM
- IC50 (NDM-1; enzyme 1 pM): 53 nM
- IC50 (VIM-1; enzyme 30 pM): 2.6 nM
- IC50 (IMP-1; enzyme 2 pM): 1700 nM

Compound: CCC[C@H](C(=O)O)[C@H](Cc1ccc(C[C@@H]2CCCOC2)cc1)c1nn[nH]n1 [Example 257, (2S)-2-[(1S)-2-{4-[(3S)-tetrahydro-2H-pyran-3-ylmethyl]phenyl}-1-(2H-tetrazol-5-yl)ethyl]pentanoic acid]
- IMP1 SM5741 MITC95 [1, 8]: 6.2 µM
- VIM1 KP599644 MITC95 [3, 9]: 200 µM
- NDM1 EC30005 MITC95 [4, 10]: 7.3 µM
- IC50 (NDM-1; NDM-1 enzyme 1 pM): 13 nM
- IC50 (VIM-1; VIM-1 enzyme 30 pM): 14 nM
- IC50 (IMP-1; IMP-1 enzyme 2 pM): 33 nM

Compound: O=C(O)[C@@H](C1CCOCC1)[C@H](Cc1ccccc1)c1nnn[nH]1 [Example 12, (2S,3S)-4-phenyl-2-(tetrahydro-2H-pyran-4-yl)-3-(1H-tetrazol-5-yl)butanoic acid]
- IMP1 SM5741 MITC95 [1, 5]: 200 µM
- VIM1 KP599644 MITC95 [3, 6]: 200 µM
- NDM1 EC30005 MITC95 [4, 7]: 12.5 µM
- IC50 (NDM-1; enzyme 1 pM): 99 nM
- IC50 (VIM-1; enzyme 30 pM): 84.7 nM
- IC50 (IMP-1; enzyme 2 pM): 1050 nM

Compound: O=C(O)[C@@H](C1CCCC1)[C@H](Cc1ccccc1)c1nnn[nH]1 [Example 17, (2S,3S)-2-cyclopentyl-4-phenyl-3-(1H-tetrazol-5-yl)butanoic acid]
- IMP1 SM5741 MITC95 [1, 5]: 37.5 µM
- VIM1 KP599644 MITC95 [3, 6]: 37.5 µM
- NDM1 EC30005 MITC95 [4, 7]: 18.8 µM
- IC50 (NDM-1; enzyme 1 pM): 16 nM
- IC50 (VIM-1; enzyme 30 pM): 3.7 nM
- IC50 (IMP-1; enzyme 2 pM): 110 nM

Compound: CCC[C@H](C(=O)O)[C@H](Cc1ccc(-c2ccc3c(c2)CCC(N)C3)cc1)c1nn[nH]n1 (stereo partly drawn) [Example 193, (2S)-2-[(1S)-2-[4-(6-amino-5,6,7,8-tetrahydronaphthalen-2-yl)phenyl]-1-(2H-tetrazol-5-yl)ethyl]pentanoic acid]
- IMP1 SM5741 MITC95 [1, 5]: 6.2 µM
- VIM1 KP599644 MITC95 [3, 6]: 50 µM
- NDM1 EC30005 MITC95 [4, 7]: 4.7 µM
- IC50 (NDM-1; enzyme 1 pM): 58 nM
- IC50 (VIM-1; enzyme 30 pM): 18 nM
- IC50 (IMP-1; enzyme 2 pM): 45 nM

Compound: CCC[C@H](C(=O)O)[C@H](Cc1ccc(-c2ccc(N(C)C)nc2)cc1)c1nn[nH]n1 [Example 189, (2S)-2-[(1S)-2-{4-[6-(dimethylamino)pyridin-3-yl]phenyl}-1-(2H-tetrazol-5-yl)ethyl]pentanoic acid]
- IMP1 SM5741 MITC95 [1, 5]: 7.8 µM
- VIM1 KP599644 MITC95 [3, 6]: 100 µM
- NDM1 EC30005 MITC95 [4, 7]: 2.3 µM
- IC50 (NDM-1; enzyme 1 pM): 13 nM
- IC50 (VIM-1; enzyme 30 pM): 4.3 nM
- IC50 (IMP-1; enzyme 2 pM): 29 nM

Compound: CCC[C@H](C(=O)O)[C@H](Cc1ccc(-c2csc(N3CCOCC3)n2)cc1)c1nn[nH]n1 [Example 208, (2S)-2-[(1S)-2-[4-(2-morpholin-4-yl-1,3-thiazol-4-yl)phenyl]-1-(2H-tetrazol-5-yl)ethyl]pentanoic acid]
- IMP1 SM5741 MITC95 [1, 5]: 18.8 µM
- VIM1 KP599644 MITC95 [3, 6]: 200 µM
- NDM1 EC30005 MITC95 [4, 7]: 25 µM
- IC50 (NDM-1; enzyme 1 pM): 61 nM
- IC50 (VIM-1; enzyme 30 pM): 16 nM
- IC50 (IMP-1; enzyme 2 pM): 100 nM

Compound: CCC[C@H](C(=O)O)[C@H](Cc1ccc(CCCO)cc1)c1nn[nH]n1 [Example 254, (2S)-2-[(1S)-2-[4-(3-hydroxypropyl)phenyl]-1-(2H-tetrazol-5-yl)ethyl]pentanoic acid]
- IMP1 SM5741 MITC95 [1, 8]: 31 µM
- VIM1 KP599644 MITC95 [3, 9]: 25 µM
- NDM1 EC30005 MITC95 [4, 10]: 5.2 µM
- IC50 (NDM-1; NDM-1 enzyme 1 pM): 37 nM
- IC50 (VIM-1; VIM-1 enzyme 30 pM): 9 nM
- IC50 (IMP-1; IMP-1 enzyme 2 pM): 180 nM

Compound: CCC[C@H](C(=O)O)[C@H](Cc1ccc(-c2ccc(CO)cc2)cc1)c1nn[nH]n1 [Example 211, (2S)-2-[(1S)-2-[4′-(hydroxymethyl)biphenyl-4-yl]-1-(2H-tetrazol-5-yl)ethyl]pentanoic acid]
- IMP1 SM5741 MITC95 [1, 5]: 2.3 µM
- VIM1 KP599644 MITC95 [3, 6]: 25 µM
- NDM1 EC30005 MITC95 [4, 7]: 3.1 µM
- IC50 (NDM-1; enzyme 1 pM): 12 nM
- IC50 (VIM-1; enzyme 30 pM): 3.4 nM
- IC50 (IMP-1; enzyme 2 pM): 20 nM

Compound: CC(C)C[C@H](C(=O)O)[C@@H](c1nnn[nH]1)[C@H](C)c1ccccc1 [Example 27, (2S,3S,4S)-2-isobutyl-4-phenyl-3-(1H-tetrazol-5-yl)pentanoic acid]
- IMP1 SM5741 MITC95 [1, 5]: 13 µM
- VIM1 KP599644 MITC95 [3, 6]: 37.5 µM
- NDM1 EC30005 MITC95 [4, 7]: 15.6 µM
- IC50 (NDM-1; enzyme 1 pM): 16 nM
- IC50 (VIM-1; enzyme 30 pM): 7.7 nM
- IC50 (IMP-1; enzyme 2 pM): 62 nM

Compound: CC(C)[C@H](C(=O)O)[C@H](Cc1ccccc1)c1nnn[nH]1 [Example 20, (2S,3S)-2-isopropyl-4-phenyl-3-(1H-tetrazol-5-yl)butanoic acid]
- IMP1 SM5741 MITC95 [1, 5]: 128 µM
- VIM1 KP599644 MITC95 [3, 6]: 69 µM
- NDM1 EC30005 MITC95 [4, 7]: 4.7 µM
- IC50 (NDM-1; enzyme 1 pM): 26 nM
- IC50 (VIM-1; enzyme 30 pM): 22 nM
- IC50 (IMP-1; enzyme 2 pM): 390 nM

Compound: CCC[C@H](C(=O)O)[C@H](Cc1ccc(-c2cccc(CN3CCOCC3)c2)cc1)c1nn[nH]n1 [Example 207, (2S)-2-[(1S)-2-[3′-(morpholin-4-ylmethyl)biphenyl-4-yl]-1-(2H-tetrazol-5-yl)ethyl]pentanoic acid]
- IMP1 SM5741 MITC95 [1, 5]: 16 µM
- VIM1 KP599644 MITC95 [3, 6]: 150 µM
- NDM1 EC30005 MITC95 [4, 7]: 16 µM
- IC50 (NDM-1; enzyme 1 pM): 64 nM
- IC50 (VIM-1; enzyme 30 pM): 8 nM
- IC50 (IMP-1; enzyme 2 pM): 100 nM

Compound: CCC[C@H](C(=O)O)[C@H](Cc1ccc(CN2CCN(C)CC2)cc1)c1nn[nH]n1 [Example 251, (2S)-2-[(1S)-2-{4-[(4-methylpiperazin-1-yl)methyl]phenyl}-1-(2H-tetrazol-5-yl)ethyl]pentanoic acid]
- IMP1 SM5741 MITC95 [1, 8]: 38 µM
- VIM1 KP599644 MITC95 [3, 9]: 75 µM
- NDM1 EC30005 MITC95 [4, 10]: 8.3 µM
- IC50 (NDM-1; NDM-1 enzyme 1 pM): 330 nM
- IC50 (VIM-1; VIM-1 enzyme 30 pM): 430 nM
- IC50 (IMP-1; IMP-1 enzyme 2 pM): 1300 nM

Compound: CC[C@H](C)[C@H](C(=O)O)[C@H](Cc1ccc(-c2ccc(-c3nnn[nH]3)cc2)cc1)c1nn[nH]n1 [Example 58, (2S,3S)-2-((S)-2-(4′-(1H-tetrazol-5-yl)-[1,1′-biphenyl]-4-yl)-1-(2H-tetrazol-5-yl)ethyl)-3-methylpentanoic acid]
- IMP1 SM5741 MITC95 [1, 5]: 12.9 µM
- VIM1 KP599644 MITC95 [3, 6]: 200 µM
- NDM1 EC30005 MITC95 [4, 7]: 18.8 µM
- IC50 (NDM-1; enzyme 1 pM): < 0.64 nM
- IC50 (VIM-1; enzyme 30 pM): 5.1 nM
- IC50 (IMP-1; enzyme 2 pM): 1.4 nM
